Experimental data reported in ChEMBL document CHEMBL5096178, “Synthesis and Biological Evaluation of Natural-Product-Inspired, Aminoalkyl-Substituted 1-Benzopyrans as Novel Antiplasmodial Agents” (J Med Chem, 2021).
pIC50, pKi: −log10 of the molar value. Converted amounts (≈) assume the structure as drawn. Values belong to the molecule of their own block, whether it stands above or below them.

Columns and labels:
Plasmodium falciparum [1] = assay: Antimalarial activity against drug-sensitive Plasmodium falciparum 3D7 assessed as parasite growth inhibition incubated for 48 hrs by [3H]hypoxanthine incorporation assay; format: functional, organism-based
[2] = Drug concentration in plasma of NMRI mouse infected with GFP-transfected Plasmodium berghei ANKA administered intraperitoneally for 4 consecutive days measured after 1 hr by LC-MS analysis; format: ADME; details: ip, 97 h
[3] = Selectivity index, ratio of IC50 for rat L6 cells to IC50 for Trypanosoma brucei rhodesiense STIB 900 bloodstream trypomastigote; format: toxicity; details: read-out: Ratio IC50
[4] = Displacement of [3H]-(+)-pentazocine from Sigma1 receptor derived from pig brain assessed as inhibition constant measured after 120 mins by scintillation counter analysis; format: tissue-based, Sus scrofa
[5] = system: Trypanosoma brucei rhodesiense; assay: Antiprotozoal activity against Trypanosoma brucei rhodesiense STIB 900 bloodstream trypomastigote assessed as parasite growth inhibition incubated for 70 hrs by resazurin dye based assay; format: functional, organism-based; details: STIB 900, 70 h
[6] = (§1) Drug metabolism in NMRI mouse infected with GFP-transfected Plasmodium berghei ANKA assessed as (2R,3R,4S,5S,6R)-2-(2,2-dimethyl-6-((3-phenylpropylamino)methyl)chroman-7-ylperoxy)-6-(hydroxymethyl)tetrahydro-2H-pyran-3,4,5-triol metabolite formation administered orally for 4 consecutive days measured after 1 hr by LC-MS analysis; format: ADME; details: in vivo, po, 97 h
[7] = as §1, with “intraperitoneally” for “orally”; format: ADME; details: in vivo, ip, 97 h
[8] = Drug metabolism in NMRI mouse infected with GFP-transfected Plasmodium berghei ANKA assessed as 2,2-dimethyl-6-((3-phenylpropylamino)methyl)chroman-7-ol metabolite formation administered intraperitoneally for 4 consecutive days measured after 1 hr by LC-MS analysis; format: ADME; details: in vivo, ip, 97 h
[9] = Drug concentration in plasma of NMRI mouse infected with GFP-transfected Plasmodium berghei ANKA administered orally for 4 consecutive days measured after 1 hr by LC-MS analysis; format: ADME; details: po, 97 h
[10] = Selectivity index, ratio of IC50 for rat L6 cells to IC50 for erythrocytic stage Plasmodium falciparum NF54; format: toxicity; details: read-out: Ratio IC50
[11] = Selectivity index, ratio of IC50 for rat L6 cells to IC50 for Trypanosoma cruzi Tulahuen C4 intracellular amastigote infected in rat L6 cells; format: toxicity, cell-based; details: read-out: Ratio IC50
[12] = Selectivity index, ratio of IC50 for rat L6 cells to IC50 for Leishmania donovani MHOM/ET/67/L82 axenic amastigote; format: toxicity; details: read-out: Ratio IC50
Trypanosoma cruzi = assay: Antiprotozoal activity against Trypanosoma cruzi Tulahuen C4 intracellular amastigote infected in rat L6 cells assessed as parasite growth inhibition incubated for 96 hrs in presence of CPRG/Nonidet by photometry; format: functional, organism-based; details: Tulahuen C4, L6, 96 h
Plasmodium falciparum [13] = assay: Inhibition of Plasmodium falciparum DHODH assessed as residual activity using DCIP as substrate at 50 uM relative to control
[14] = Drug metabolism in NMRI mouse infected with GFP-transfected Plasmodium berghei ANKA assessed as glucuronic acid conjugated metabolite formation administered intraperitoneally for 4 consecutive days measured after 1 hr by LC-MS analysis; format: ADME; details: in vivo, ip, 97 h
Plasmodium falciparum [15] = assay: Inhibition of Plasmodium falciparum DHODH using DCIP as substrate at 10 uM relative to control
[16] = Drug metabolism in NMRI mouse infected with GFP-transfected Plasmodium berghei ANKA assessed as 2,2-dimethyl-6-((3-phenylpropylamino)methyl)chroman-7-ol metabolite formation administered orally for 4 consecutive days measured after 1 hr by LC-MS analysis; format: ADME; details: in vivo, po, 97 h
Leishmania donovani = assay: Antiprotozoal activity against Leishmania donovani MHOM/ET/67/L82 axenic amastigote assessed as parasite growth inhibition incubated for resazurin dye based fluorometry; format: functional, organism-based
[17] = Drug metabolism in mouse liver microsomes assessed as 2,2-dimethyl-6-((3-phenylpropylamino)methyl)chroman-7-ol metabolite formation incubated for 90 mins in presence of NADPH/UDPGA by LC-MS analysis; format: ADME, Microsome; details: 1.5 h
[18] = Drug metabolism in NMRI mouse infected with GFP-transfected Plasmodium berghei ANKA assessed as glucuronic acid conjugated metabolite formation administered orally for 4 consecutive days measured after 1 hr by LC-MS analysis; format: ADME; details: in vivo, po, 97 h
[19] = Drug metabolism in mouse liver microsomes assessed as glucuronic acid conjugated metabolite formation incubated for 90 mins in presence of NADPH/UDPGA by LC-MS analysis; format: ADME, Microsome; details: 1.5 h
Plasmodium berghei [20] = assay: Antiplasmodial activity against GFP-transfected Plasmodium berghei ANKA infected in NMRI mouse assessed as parasitemia reduction at 30 mg/kg, ip administered for 4 consecutive days measured after 24 hrs by FACS analysis relative to control; format: functional; set-up: scale not given: the % may be the effect or the level left
Plasmodium falciparum [21] = assay: Antiprotozoal activity against erythrocytic stage Plasmodium falciparum NF54 assessed as parasite growth inhibition incubated for 48 hrs by [3H]hypoxanthine incorporation assay; format: functional, organism-based
Plasmodium falciparum [22] = assay: Inhibition of Plasmodium falciparum DHODH using DCIP as substrate at 50 uM relative to control
Plasmodium berghei [23] = assay: Antiplasmodial activity against GFP-transfected Plasmodium berghei ANKA infected in NMRI mouse assessed as parasitemia reduction at 60 mg/kg, po administered for 4 consecutive days measured after 24 hrs by FACS analysis relative to control; format: functional; set-up: scale not given: the % may be the effect or the level left
[24] = Cytotoxicity against rat L6 cells assessed as cell growth inhibition incubated for 70 hrs by Alamar Blue staining based […]; format: toxicity
[25] = Drug metabolism in mouse liver microsomes assessed as (2R,3R,4S,5S,6R)-2-(2,2-dimethyl-6-((3-phenylpropylamino)methyl)chroman-7-ylperoxy)-6-(hydroxymethyl)tetrahydro-2H-pyran-3,4,5-triol metabolite formation incubated for 90 mins in presence of NADPH/UDPGA by LC-MS analysis; format: ADME, Microsome; details: 1.5 h
Plasmodium falciparum [26] = assay: Inhibition of Plasmodium falciparum DHODH assessed as residual activity using DCIP as substrate at 10 uM relative to control
Plasmodium falciparum [27] = assay: Antimalarial activity against chloroquine-sensitive Plasmodium falciparum D6 assessed as parasite growth inhibition by [3H]hypoxanthine growth inhibition assay; format: functional, organism-based

SMILES: CC(C)(C)c1cc(O)c(CN)c(C(C)(C)C)c1
IC50 (Plasmodium falciparum [1]): 30 µg/mL (≈ 127 µM)

Drug uptake [2]: Active | pKi [4]: 7.13 | pIC50 [5]: 6.39 | Drug metabolism [6]: Metabolite_Detected | Drug metabolism [7]: Metabolite_Detected | Drug metabolism [8]: Metabolite_Detected | Drug uptake [9]: Active | pIC50 (Trypanosoma cruzi): 4.82 | Activity (Plasmodium falciparum [13]): 90% | Drug metabolism [14]: Metabolite_Detected | inhibition (Plasmodium falciparum [15]): 3% | Drug metabolism [16]: Metabolite_Detected | Drug metabolism [17]: Metabolite_Detected | Drug metabolism [18]: Metabolite_Detected | Drug metabolism [19]: Metabolite_Detected | inhibition (Plasmodium falciparum [22]): 1% | Drug metabolism [25]: Metabolite_Detected | Activity (Plasmodium falciparum [26]): 106%
SMILES: CC1(C)CCc2cc(CNCCCc3ccccc3)c(O)cc2O1
selectivity ratio [3]: 14 | selectivity ratio [10]: 171 | selectivity ratio [11]: 0.4 | selectivity ratio [12]: 0.05 | pIC50 (Leishmania donovani): 3.87 | Activity (Plasmodium berghei [20]): 66% | pIC50 (Plasmodium falciparum [21]): 7.42 | Activity (Plasmodium berghei [23]): 74% | IC50 at 70 h [24]: 6500 nM

SMILES: CCCCNCc1cc(C(C)(C)C)cc(-c2cnc(C(F)(F)F)c(F)c2)c1O
pIC50 (Plasmodium falciparum [27]): 8.05
